Data: the supplement of paper PMC10331698
± gives the standard deviation of the averaged measurements.

Columns and labels:
Experiment in all cases: level (log10 ratio to DMSO vehicle control); higher = higher biomarker level / cell amount than vehicle control
[1] = compound: C=C(C)C(=O)OCCC(F)(F)C(F)(F)C(F)(F)C(F)(F)C(F)(F)C(F)(F)F [6:2 Fluorotelomer methacrylate]; details: in DMSO
Protocol: (§1)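 BioMAP Diversity Plus panel of 12 human primary cell co-culture systems (3C, 4H, LPS, SAg, BT, BF4T, BE3C, CASM3C, HDF3CGF, KF3CT, MyoF, Mphg). Compounds were added 1 h before stimulation and left for 24 h (MyoF 48 h; BT 72 h for soluble read-outs or 6 d for IgG). Biomarkers were read by ELISA, cytotoxicity by SRB, PBMC viability and proliferation by Alamar Blue. Each well value was divided by the mean of 8 DMSO control wells on the same plate and log10 transformed; duplicate blinded samples were tested at 4 concentrations.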

[2] = compound: C=CC(=O)OCC(F)(F)C(F)(F)C(F)(F)COC(=O)C=C [1H,1H,5H,5H-Perfluoro-1,5-pentanediol diacrylate]; details: 6700 nM; in DMSO
Protocol: as §1

[3] = compound: COC(=O)C(F)(F)C(F)(F)OC(F)(C(F)(F)F)C(F)(F)OC(F)=C(F)F [Methyl perfluoro(3-(1-ethenyloxypropan-2-yloxy)propanoate)]; details: in DMSO
Protocol: as §1

[4] = compound: FC(F)(F)C(F)(F)C(F)(F)C(F)(F)C(F)(F)C(F)(F)C(F)(F)I [1-Iodopentadecafluoroheptane]; details: in DMSO
Protocol: as §1

[5] = compound: FC(F)(F)C(F)(F)C(F)(F)C(F)(F)C(F)(F)C(F)(F)CC1CO1 [3-(Perfluorohexyl)-1,2-epoxypropane]; details: in DMSO
Protocol: as §1

[6] = compound: FC(F)(F)C(F)(F)C(F)(F)CC1CO1 [1H,1H-Heptafluorobutyl epoxide]; details: in DMSO
Protocol: as §1

Heptafluorobutyl iodide = compound: FC(F)(F)C(F)(F)C(F)(F)CI [Heptafluorobutyl iodide]; details: in DMSO
Protocol: as §1

[7] = compound: FC(F)(F)C(F)(F)CNCC(F)(F)C(F)(F)F [Bis(1H,1H-perfluoropropyl)amine]; details: in DMSO
Protocol: as §1

Octafluoroadipamide = compound: NC(=O)C(F)(F)C(F)(F)C(F)(F)C(F)(F)C(N)=O [Octafluoroadipamide]; details: in DMSO
Protocol: as §1

Nonafluoropentanamide = compound: NC(=O)C(F)(F)C(F)(F)C(F)(F)C(F)(F)F [Nonafluoropentanamide]; details: in DMSO
Protocol: as §1

[8] = compound: NC(=O)C(F)(F)C(F)(F)C(F)(F)C(F)F; details: in DMSO
Protocol: as §1

[9] = compound: NS(=O)(=O)C(F)(F)C(F)(F)C(F)(F)C(F)(F)C(F)(F)C(F)(F)F [Perfluorohexanesulfonamide]; details: in DMSO
Protocol: as §1

[10] = compound: O=C(O)C(F)(F)C(F)(F)C(F)(F)C(F)(F)C(F)(F)C(F)(F)C(F)(F)C(F)(F)C(F)(F)C(F)F [11-H-Perfluoroundecanoic acid]; details: in DMSO
Protocol: as §1

[11] = compound: O=C(O)C=CC(F)(C(F)(F)F)C(F)(F)F [3-(Perfluoroisopropyl)-2-propenoic acid]; details: in DMSO
Protocol: as §1

[12] = compound: O=S(=O)(Cl)C(F)(F)C(F)(F)C(F)(F)C(F)(F)C(F)(F)C(F)(F)C(F)(F)C(F)(F)F [Perfluoro-1-octanesulfonyl chloride]; details: in DMSO
Protocol: as §1

[13] = compound: O=S(=O)(F)C(F)(F)C(F)(F)C(F)(F)C(F)(F)C(F)(F)C(F)(F)C(F)(F)C(F)(F)F [Perfluorooctanesulfonyl fluoride]; details: in DMSO
Protocol: as §1

[14] = compound: O=S(=O)(O)C(F)(F)C(F)(F)C(F)(F)C(F)(F)C(F)(F)C(F)(F)C(F)(F)C(F)(F)C(F)(F)C(F)(F)F [Sodium perfluorodecanesulfonate]; details: in DMSO
Protocol: as §1

[15] = compound: O=S(=O)(O)CCC(F)(F)C(F)(F)C(F)(F)C(F)(F)C(F)(F)C(F)(F)F [6:2 Fluorotelomer sulfonic acid]; details: in DMSO
Protocol: as §1

Hexafluoroamylene glycol = compound: OCC(F)(F)C(F)(F)C(F)(F)CO [Hexafluoroamylene glycol]; details: in DMSO
Protocol: as §1

CASM3C:SRB
level (log10) ([1]; 6700 nM): 0.001 ± 0.0057 | level (log10) ([1]; 20000 nM): -0.0035 ± 0.0021 | level (log10) ([1]; 60000 nM): 0.002 ± 0.0042 | level (log10) [2]: -0.0025 ± 0.0021 | level (log10) ([3]; 6700 nM): 0.0015 ± 0.0021 | level (log10) ([3]; 20000 nM): 0.006 ± 0.0014 | level (log10) ([4]; 6700 nM): -0.0025 ± 0.0092 | level (log10) ([4]; 20000 nM): 0.007 | level (log10) ([5]; 6700 nM): 0 ± 0.0085 | level (log10) ([5]; 20000 nM): -0.009 ± 0.0014 | level (log10) ([5]; 60000 nM): 0.0025 ± 0.00071 | level (log10) ([6]; 6700 nM): -0.006 ± 0.014 | level (log10) ([6]; 20000 nM): 0.0055 ± 0.0035 | level (log10) ([6]; 60000 nM): -0.0035 ± 0.005 | level (log10) (Heptafluorobutyl iodide; 6700 nM): -0.0085 ± 0.0064 | level (log10) (Heptafluorobutyl iodide; 20000 nM): 0.002 ± 0.0042 | level (log10) (Heptafluorobutyl iodide; 60000 nM): 0.0055 ± 0.0078 | level (log10) ([7]; 6700 nM): 0.0065 ± 0.005 | level (log10) ([7]; 20000 nM): -0.001 ± 0.0028 | level (log10) ([7]; 60000 nM): 0.008 | level (log10) (Octafluoroadipamide; 6700 nM): 0.0075 ± 0.013 | level (log10) (Octafluoroadipamide; 20000 nM): 0.002 ± 0.013 | level (log10) (Octafluoroadipamide; 60000 nM): -0.005 ± 0.0042 | level (log10) (Nonafluoropentanamide; 6700 nM): 0.005 ± 0.0057 | level (log10) (Nonafluoropentanamide; 20000 nM): 0.0025 ± 0.0035 | level (log10) (Nonafluoropentanamide; 60000 nM): 0.0035 ± 0.0035 | level (log10) ([8]; 6700 nM): 0.0025 ± 0.00071 | level (log10) ([8]; 20000 nM): -0.0115 ± 0.005 | level (log10) ([8]; 60000 nM): -0.0085 ± 0.016 | level (log10) ([9]; 6700 nM): 0.004 ± 0.013 | level (log10) ([9]; 20000 nM): 0.006 ± 0.013 | level (log10) ([9]; 60000 nM): -0.0035 ± 0.0078 | level (log10) ([10]; 6700 nM): 0.0025 ± 0.0078 | level (log10) ([10]; 20000 nM): 0.008 ± 0.0028 | level (log10) ([11]; 6700 nM): 0.006 ± 0.0042 | level (log10) ([11]; 20000 nM): -0.011 ± 0.0042 | level (log10) ([11]; 60000 nM): -0.003 ± 0.0028 | level (log10) ([12]; 6700 nM): 0.0075 ± 0.00071 | level (log10) ([12]; 20000 nM): 0.0045 ± 0.0078 | level (log10) ([12]; 60000 nM): 0.014 ± 0.0042 | level (log10) ([13]; 6700 nM): 0.002 ± 0.0014 | level (log10) ([13]; 20000 nM): -0.006 ± 0.0071 | level (log10) ([13]; 60000 nM): -0.0015 ± 0.0021 | level (log10) ([14]; 1500 nM): -0.0035 ± 0.011 | level (log10) ([14]; 4400 nM): -0.005 ± 0.0085 | level (log10) ([14]; 13000 nM): 0 ± 0.0028 | level (log10) ([14]; 40000 nM): -0.007 ± 0.0085 | level (log10) ([15]; 6700 nM): -0.004 ± 0.0028 | level (log10) ([15]; 20000 nM): 0.0025 ± 0.0021 | level (log10) ([15]; 60000 nM): 0.001 ± 0.0085 | level (log10) (Hexafluoroamylene glycol; 6700 nM): -0.0005 ± 0.013 | level (log10) (Hexafluoroamylene glycol; 20000 nM): -0.0085 ± 0.00071 | level (log10) (Hexafluoroamylene glycol; 60000 nM): -0.0045 ± 0.0078
